These results are taken from patent US20240368174A1, “Antiviral Heterocyclic Compounds” (Enanta Pharmaceuticals, Inc., priority 2023, published 2024).

Where only a bound is given, the exact number is not on record here.

The test system of one experiment is HMPV clinical isolate A2 strain TN 94-49. As to the kind of experiment: HMPV antiviral assay, Method 2 (LLC-MK2 cells with CP-100-356, ATP-Lite). Particulars: human metapneumovirus, 168 h; hMPV A2 TN/94-49, LLC-MK2 cells with 4 μM CP-100-356, 7 days, ATP-Lite. The format is cell-based. The gist of the method: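 EC50 comes from a four-parameter fit of percent cell viability (ATP-Lite, normalized to virus-only and cell-only wells) after 7 days at 37 °C. Infection used HMPV A2 TN 94-49 at MOI 0.16 in LLC-MK2 cells, with 2 μM P-gp inhibitor CP-100-356 and 2 μg/mL TPCK-trypsin final; dose range 200 nM top, 2.5-fold, 10 points, duplicate.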
`COc1cc(C(=O)NC[C@](O)(c2cc3c(c(-c4ccn5nc(C)cc5c4Cl)n2)OC[C@]3(C)C(N)=O)C2CC2)cc2cn(C3CC3)nc12` [Example 837] came in with an EC50 of over 200 nM.

Turning to `COc1cc(-c2nc([C@@](O)(CNC(=O)c3cc(OC)c4nn(C5CC5)cc4c3)c3ccccc3)cc3c2OC[C@]3(C)C(N)=O)c(F)cn1` [Example 635], the EC50 was under 200 nM.

`COc1cc(C(=O)NC[C@](O)(c2cc3c(c(-n4ccc5cnccc54)n2)OC[C@]3(C)C(N)=O)C2CC2)cc2cn(C3CC3)nc12` [Example 841] registered an EC50 of under 200 nM.

`CC(C)c1nccc(-c2nc([C@@](O)(CNC(=O)c3cc(OC4CC4)c4nn(C(F)F)cc4c3)C3CC3)cc3c2OC[C@]3(C)C(N)=O)c1Cl` [Example 914] returned an EC50 of over 200 nM.

On to `COc1nccc(-c2nc([C@@](O)(CNC(=O)c3cc(OC)c4nc(C5CC5)oc4c3)c3ccc(F)cc3)cc3c2OC[C@]3(C)C(N)=O)c1Cl` [Example 699], for which the EC50 was under 200 nM.

`COc1cc(C(=O)NC[C@](O)(c2cc3c(c(-c4ccnc(OC(C)C)c4Cl)n2)OC[C@]3(C)C(N)=O)C2CC2)cc2cn(C3CC3)nc12` [Example 806] registered an EC50 of over 200 nM.

In the case of `COc1cc(C(=O)NC[C@](O)(c2cc3c(c(-c4cccc(F)c4Cl)n2)OC[C@]3(C)C(N)=O)C2CC2)cc2cc(C3CC3)nn12` [Example 632], the EC50 is under 200 nM.

Take `COc1nccc(-c2nc([C@@](O)(CNC(=O)c3cc(OC)c4nc(C5CC5)cn4c3)C(C)C)cc3c2OC[C@]3(C)C(N)=O)c1Cl` [Example 891]: the EC50 is over 200 nM.

`COc1cc(C(=O)NC[C@](O)(c2cc3c(c(-c4ccnc(C(F)(F)F)c4)n2)OC[C@]3(C)C(N)=O)C2CC2)cc2cn(C3(F)CC3)nc12` [Example 761]: the EC50 is under 200 nM.

`COc1cc(C(=O)NC[C@](O)(c2cc3c(c(-c4ccnc(C(F)(F)F)c4)n2)OC[C@]3(C)C(N)=O)C2CC2)cc2cn(C(F)F)nc12` [Example 759] showed an EC50 of over 200 nM.

With `COc1cc(C(=O)NC[C@](O)(c2cc3c(c(-c4cc(C(F)(F)F)ncc4F)n2)OC[C@]3(C)C(N)=O)C2(F)CC2)cc2cc(C3CC3)nn12` [Example 669], the EC50 is under 200 nM.

As for `COc1nccc(-c2nc([C@@](O)(CNC(=O)c3cc(OC)c4nn(C5(F)CC5)cc4c3)C3CC(F)(F)C3)cc3c2OC[C@]3(C)C(N)=O)c1Cl` [Example 896], the EC50 was under 200 nM.

Compound `COc1cc(C(=O)NC[C@](O)(c2cc3c(c(-c4cc(C5CC5)ncc4F)n2)OC[C@]3(C)C(N)=O)C2CC2)cc2cn(C3CC3)nc12` [Example 723] had an EC50 of under 200 nM.

Consider `COc1cc(C(=O)NC[C@](O)(c2cc3c(c(-c4c(F)cncc4Cl)n2)OC[C@]3(C)C(N)=O)C2CC2)cc2cn(C3CC3)nc12` [Example 724], for which the EC50 is under 200 nM.

`COc1cc(C(=O)NC[C@@](O)(c2ccccc2)c2cc3c(c(-c4ccnc(F)c4Cl)n2)OC[C@]3(C)C(N)=O)cn2cc(C3CC3)nc12` [Example 664] yielded an EC50 of under 200 nM.

`COc1nccc(-c2nc([C@@](O)(CNC(=O)c3cc(OC4CC4)c4nn(C(F)F)cc4c3)c3cccc(F)c3)cc3c2OC[C@]3(C)C(N)=O)c1Cl` [Example 902] returned a concentration for a half-maximal effect (EC50) of over 200 nM.

`COc1cc(C(=O)NC[C@](O)(c2cc3c(c(-c4ccnc(C5CCOCC5)c4Cl)n2)OC[C@]3(C)C(N)=O)C2CC2)cc2oc(C3CC3)nc12` [Example 906] yielded an EC50 of over 200 nM.

Compound `COc1cc(C(=O)NC[C@](O)(c2cc3c(c(-n4ccc5c(F)cccc54)n2)OC[C@]3(C)C(N)=O)C(F)(F)F)cc2sc(N)nc12` [Example 691] yielded an EC50 of under 200 nM.

For `COc1cc(C(=O)NC[C@](O)(c2cc3c(c(-c4cc(C(F)(F)F)ncc4F)n2)OC[C@]3(C)C(N)=O)C(F)(F)F)cc2cn(C3CC3)nc12` [Example 845], the EC50 was under 200 nM.

Take `COc1cc(C(=O)NC[C@@](O)(c2cc3c(c(-n4ccc5cnccc54)n2)OC[C@]3(C)C(N)=O)C2CC2)cc2cn(C3CC3)nc12` [Example 840]: the EC50 was over 200 nM.

Turning to `COc1cc(C(=O)NC[C@](O)(c2cc3c(c(-c4cc(C(F)(F)F)ncc4F)n2)OC[C@]3(C)C(N)=O)C2(F)CC2)cc2cn(C3CC3)nc12` [Example 665], the EC50 is under 200 nM.

Still in this experiment, the particulars now being: human metapneumovirus; hMPV A2 TN/94-49, LLC-MK2 cells with CP-100-356, Method 2.
Turning to `COc1nccc(-c2nc([C@@](O)(CNC(=O)c3cc(OC4CC4)n4nc(C5CC5)cc4c3)C3CC3)cc3c2OC[C@]3(C)C(N)=O)c1Cl` [Example 606], the EC50 was under 200 nM.

`COc1cc(F)c(-c2nc([C@@](O)(CNC(=O)c3cc(OC)c4nn(C5(F)CC5)cc4c3)c3ccccc3)cc3c2OC[C@]3(C)C(N)=O)cc1F` [Example 363] yielded an EC50 of over 200 nM.

Compound `COc1cc(C(=O)NC[C@@](O)(c2cccc(C#N)c2)c2cc3c(c(-c4cc(Cl)c(F)cc4F)n2)OC[C@]3(C)C(N)=O)cc2cn(C3CC3)nc12` [Example 488] yielded an EC50 of under 200 nM.

In the case of `C[C@]1(C(N)=O)COc2c1cc([C@@](O)(CNC(=O)c1cc(OC3CC3)c3ncc(Cl)cc3c1)c1ccccc1)nc2-c1cc(C(F)(F)F)c(F)cc1F` [Example 315], the EC50 is under 200 nM.

`C[C@]1(C(N)=O)COc2c1cc([C@@](O)(CNC(=O)c1ccc3nc(C4CC4)oc3c1)c1ccccc1)nc2-c1cc(C(F)(F)F)c(F)cc1F` [Example 307]: the EC50 is over 200 nM.

`COc1cc(C(=O)NC[C@](O)(c2cc3c(c(-c4ccnc(Cl)c4Cl)n2)OC[C@]3(C)C(N)=O)C2CC2)cc2cn(C3CC3)nc12` [Example 387]: the EC50 was under 200 nM.

As to `COc1cc(C(=O)NC[C@](O)(c2cc3c(c(-c4c(C)cncc4F)n2)OC[C@]3(C)C(N)=O)C2CC2)cc2cn(C3CC3)nc12` [Example 435], the EC50 is under 200 nM.

`C[C@]1(C(N)=O)COc2c1cc([C@@](O)(CNC(=O)c1cc(OC3CC3)c3ncc(Cl)cc3c1)C1CC1)nc2-c1cc(F)c(F)cc1F` [Example 104] registered an EC50 of under 200 nM.

In turn, `COc1cc(C(=O)NC[C@](O)(c2cc3c(c(-c4cc(Cl)c(F)cc4F)n2)OC[C@]3(C)C(N)=O)C2CC2)cc2cc(Cl)cnc12` [Example 225] came in with a 50% effective concentration (EC50) of under 200 nM.

`Cc1nc2c(OC3CC3)cc(C(=O)NC[C@@](O)(c3ccccc3)c3cc4c(c(-c5cc(Cl)c(F)cc5F)n3)OC[C@]4(C)C(N)=O)cc2s1` [Example 189] had an EC50 of under 200 nM.

`C[C@]1(C(N)=O)COc2c1cc([C@@](O)(CNC(=O)c1ccc3nc(-c4ccccc4)oc3c1)c1ccccc1)nc2-c1cc(Cl)c(F)cc1F` [Example 227] displayed an EC50 of over 200 nM.

`C[C@]1(C(N)=O)COc2c1cc([C@@](O)(CNC(=O)c1ccc3nc(Cc4ccccc4)oc3c1)c1ccccc1)nc2-c1cc(Cl)c(F)cc1F` [Example 230]: the EC50 was over 200 nM.

In turn, `COc1cc(C(=O)NC[C@@](O)(c2cccc(F)c2)c2cc3c(c(-c4cccc(Cl)c4Cl)n2)OC[C@]3(C)C(N)=O)cc2cc(Cl)cnc12` [Example 333] had an EC50 of under 200 nM.

In turn, `COc1nccc(-c2nc([C@@](O)(CNC(=O)c3cc(OC4CC4)c4nn(C(F)F)cc4c3)C3CC3)cc3c2OC[C@]3(C)C(N)=O)c1Cl` [Example 591] showed an EC50 of under 200 nM.

In turn, `COc1nccc(-c2nc([C@@](O)(CNC(=O)c3cc(OC)c4nc(C5CC5)cn4c3)C3CC3)cc3c2OC[C@]3(C)C(N)=O)c1Cl` [Example 583] had an EC50 of under 200 nM.

The compound `COc1cc(C(=O)NC[C@@](O)(c2ccccc2)c2cc3c(c(-c4cc(Cl)c(F)cc4F)n2)OC[C@]3(C)C(N)=O)cn2cc(C3CC3)nc12` [Example 115] registered an EC50 of under 200 nM.

Regarding `COc1nccc(-c2nc([C@@](O)(CNC(=O)c3cc(OC)c4nn(C5(F)CC5)cc4c3)c3ccccc3)cc3c2OC[C@]3(C)C(N)=O)c1Cl` [Example 555], the EC50 was under 200 nM.

As to `C[C@]1(C(N)=O)COc2c1cc([C@@](O)(CNC(=O)c1cc(OC3CC3)c3ncc(Cl)cc3c1)C1CC1)nc2-c1cc(C(F)(F)F)c(F)cc1F` [Example 317], the EC50 was under 200 nM.

Turning to `Cc1nccc(-c2nc([C@@](O)(CNC(=O)c3cc(OC4CC4)c4nn(C5CC5)cc4c3)c3cccc(F)c3)cc3c2OC[C@]3(C)C(N)=O)c1Cl` [Example 603], the EC50 is under 200 nM.

Regarding `COc1cc(C(=O)NCC(O)(c2cc(F)nc(F)c2)c2cc3c(c(-c4cccc(Cl)c4Cl)n2)OC[C@]3(C)C(N)=O)cc2cn(C3CC3)nc12` (stereo partly shown) [Example 499], the EC50 was under 200 nM.

For the compound `COc1cc(C(=O)NC[C@@](O)(c2cccc(F)n2)c2cc3c(c(-c4cc(Cl)c(F)cc4F)n2)OC[C@]3(C)C(N)=O)cc2cn(C3(F)CC3)nc12` [Example 204], the EC50 is under 200 nM.

With `COc1cc(C(=O)NC[C@@](O)(c2ccccc2)c2cc3c(c(-c4cc(C(F)(F)F)c(F)cc4F)n2)OC[C@]3(C)C(N)=O)cc2cn(C3CC3)nc12` [Example 302], the EC50 was under 200 nM.

The compound `C[C@]1(C(N)=O)COc2c1cc([C@@](O)(CNC(=O)c1cc(F)c3nn(C4CC4)cc3c1)c1ccccc1)nc2-c1cc(Cl)c(F)cc1F` [Example 100] showed an EC50 of under 200 nM.

`COc1cc(C(=O)NC[C@@](O)(c2ccccc2)c2cc3c(c(-c4cccc(Cl)c4Cl)n2)OC[C@]3(C)C(N)=O)cc2oc(C3CC3)nc12` [Example 96] returned an EC50 of under 200 nM.

As to `C[C@]1(C(N)=O)COc2c1cc([C@@](O)(CNC(=O)c1cc(Cl)c3nn(C4CC4)cc3c1)c1ccccc1)nc2-c1cc(Cl)c(F)cc1F` [Example 99], the EC50 was under 200 nM.

Consider `COc1cc(C(=O)NC[C@](O)(c2cc3c(c(-c4ccnc(C(F)F)c4Cl)n2)OC[C@]3(C)C(N)=O)C(F)(F)F)cc2sc(C)nc12` [Example 551], for which the EC50 was under 200 nM.

As for `COc1cc(C(=O)NC[C@@](O)(c2ccccc2)c2cc3c(c(-c4ccnc(C(F)F)c4Cl)n2)OC[C@]3(C)C(N)=O)cc2cn(C3CC3)nc12` [Example 562], the EC50 was under 200 nM.

Regarding `COc1cc([C@](O)(CNC(=O)c2cc(OC)c3nn(C4CC4)cc3c2)c2cc3c(c(-c4cccc(Cl)c4Cl)n2)OC[C@]3(C)C(N)=O)cc(OC)n1` [Example 497], the EC50 was under 200 nM.
